In the NIST ThermoML archive (doi:10.1021/acs.jced.6b00361):
Numbers after ± are expanded uncertainties.

Columns and labels:
[1] = Crystal; DTA
[2] = Molar enthalpy of transition or fusion; details: Crystal; DSC

Normal melting temperature [1]: 221.2 ± 0.5 °C
Molar enthalpy of transition or fusion [2]: 34.3 ± 1 kJ/mol
SMILES: O=C(O)C=Cc1ccc(O)cc1 [3-(4-hydroxyphenyl)-2-propenoic acid]
